Measured values from ChEMBL document CHEMBL1201862, “PubChem BioAssay data set” (2004).
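Step 1: Grow cells in 96-well plates. Step 2: Expose to compound for 48 hours at 5 concentrations. Step 3: Interpolate endpoints linearly; if unreached, use highest concentration. GI50 marks 50% less growth.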 The source made the active and inactive calls. Cut-off read from the data, not from the text of the source: active = GI50 up to about 1.1 µM and inactive = higher.

Columns and labels:
Assay in all cases: inhibition of tumour cell growth, NCI panel, 48 h
M14 = system: M14
NCI-H23 = system: NCI-H23
K562 = system: K562
TK-10 = system: TK-10
LOX IMVI = system: LOX IMVI
HOP-92 = system: HOP-92
SR = system: SR
DU-145 = system: DU-145
RXF 393 = system: RXF 393
RPMI-8226 = system: RPMI-8226
SK-MEL-28 = system: SK-MEL-28
MOLT-4 = system: MOLT-4
HCC 2998 = system: HCC 2998
NCI-H522 = system: NCI-H522
Hs-578T = system: Hs-578T
EKVX = system: EKVX
MDA-MB-435 = system: MDA-MB-435
HOP-62 = system: HOP-62
NCI-H226 = system: NCI-H226

Row | Compound | GI50 (M14) | GI50 (NCI-H23) | GI50 (K562) | GI50 (TK-10) | GI50 (LOX IMVI) | GI50 (HOP-92) | GI50 (SR) | GI50 (DU-145) | GI50 (RXF 393) | GI50 (RPMI-8226) | GI50 (SK-MEL-28) | GI50 (MOLT-4) | GI50 (HCC 2998) | GI50 (NCI-H522) | GI50 (Hs-578T) | GI50 (EKVX) | GI50 (MDA-MB-435) | GI50 (HOP-62) | GI50 (NCI-H226)
1 | Cc1ccc2nc(-c3ccc(C(C)(C)C)cc3)oc(=O)c2c1 | 23.8 µM (inactive) | 19.6 µM (inactive) | 17.3 µM (inactive) | 39.7 µM (inactive) | 16.4 µM (inactive) | 29 µM (inactive) | 21.2 µM (inactive) | 26.7 µM (inactive) | 36.5 µM (inactive) | 21 µM (inactive) | 27.4 µM (inactive) | 17 µM (inactive) | 14.6 µM (inactive) | 11.5 µM (inactive) | 27.7 µM (inactive) | 20 µM (inactive) | 14.7 µM (inactive) | 27.9 µM (inactive) | –
2 | COP(=O)(O)C(N)Cc1c[nH]c2ccccc12 (stereo not drawn) | > 100 µM (inactive) | > 100 µM (inactive) | > 100 µM (inactive) | > 100 µM (inactive) | > 100 µM (inactive) | > 100 µM (inactive) | > 100 µM (inactive) | > 100 µM (inactive) | – | > 100 µM (inactive) | > 100 µM (inactive) | > 100 µM (inactive) | > 100 µM (inactive) | > 100 µM (inactive) | > 100 µM (inactive) | – | > 100 µM (inactive) | > 100 µM (inactive) | > 100 µM (inactive)
3 | CCOC(=O)C(C)(C)C(O)C(C)C (stereo not drawn) | > 100 µM (inactive) | > 100 µM (inactive) | > 100 µM (inactive) | > 100 µM (inactive) | > 100 µM (inactive) | > 100 µM (inactive) | > 100 µM (inactive) | > 100 µM (inactive) | > 100 µM (inactive) | > 100 µM (inactive) | > 100 µM (inactive) | > 100 µM (inactive) | > 100 µM (inactive) | > 100 µM (inactive) | > 100 µM (inactive) | > 100 µM (inactive) | > 100 µM (inactive) | > 100 µM (inactive) | –
4 | COc1ccccc1N1CCN(CCCN2C(C(=O)c3ccccc3)=C(O)c3c(C)cc(C)nc3S2(=O)=O)CC1 | 90.4 µM (inactive) | > 100 µM (inactive) | 56.5 µM (inactive) | > 100 µM (inactive) | 13.4 µM (inactive) | 22.6 µM (inactive) | 46.2 µM (inactive) | > 100 µM (inactive) | 5.28 µM (inactive) | – | > 100 µM (inactive) | 24.8 µM (inactive) | – | 32.2 µM (inactive) | 59.3 µM (inactive) | 37 µM (inactive) | > 100 µM (inactive) | 77.8 µM (inactive) | 0.867 µM (active)
5 | C[C@]12C[C@@H](OC(=O)[C@]1(C)O)[C@@H]([C@]1(O)CC[C@H]3[C@@H]4C[C@H]5O[C@]56C[C@H]5O[C@H]5C(=O)[C@]6(C)[C@H]4CC[C@@]31C)C2 | > 50 µM (inactive) | > 50 µM (inactive) | > 50 µM (inactive) | > 50 µM (inactive) | – | > 50 µM (inactive) | 14.7 µM (inactive) | > 50 µM (inactive) | > 50 µM (inactive) | > 50 µM (inactive) | > 50 µM (inactive) | > 50 µM (inactive) | > 50 µM (inactive) | > 50 µM (inactive) | > 50 µM (inactive) | > 50 µM (inactive) | > 50 µM (inactive) | > 50 µM (inactive) | > 50 µM (inactive)
6 | COC(=O)C[C@H](COCc1ccccc1)NC(=O)C[C@H](COCc1ccccc1)NC(=O)OC(C)(C)C | 32.8 µM (inactive) | 35.3 µM (inactive) | 40.2 µM (inactive) | – | 53.3 µM (inactive) | 23.7 µM (inactive) | 39.1 µM (inactive) | 22.4 µM (inactive) | 29.6 µM (inactive) | 39.5 µM (inactive) | > 100 µM (inactive) | 56 µM (inactive) | – | 21.2 µM (inactive) | 26.4 µM (inactive) | 18.9 µM (inactive) | 34 µM (inactive) | 21.6 µM (inactive) | > 100 µM (inactive)
7 | CO/C=C(/C(=O)OC)c1ccccc1[C@H]1C[C@@H]1c1ccc(OC)cc1 | 18.3 µM (inactive) | 27.9 µM (inactive) | 15.8 µM (inactive) | 37.5 µM (inactive) | – | 9.33 µM (inactive) | 8.73 µM (inactive) | 32.1 µM (inactive) | 49.9 µM (inactive) | 18.2 µM (inactive) | 18.1 µM (inactive) | 17.1 µM (inactive) | 17.2 µM (inactive) | 7.93 µM (inactive) | 25.9 µM (inactive) | 14.3 µM (inactive) | 7.76 µM (inactive) | 33.9 µM (inactive) | 30.2 µM (inactive)
8 | O=C(/C=C/c1ccc2c(c1)OCO2)Cc1nc2ccccc2[nH]c1=O | 11.7 µM (inactive) | 29.8 µM (inactive) | 5.3 µM (inactive) | 18.5 µM (inactive) | 3.52 µM (inactive) | 20.7 µM (inactive) | 25.5 µM (inactive) | 29.2 µM (inactive) | 17.9 µM (inactive) | 28.1 µM (inactive) | 16.4 µM (inactive) | 38.9 µM (inactive) | 26.5 µM (inactive) | > 100 µM (inactive) | 14.1 µM (inactive) | 31.9 µM (inactive) | 20 µM (inactive) | 17.5 µM (inactive) | –
9 | CCNC(=O)Nc1cccc(NC(=O)NCC)n1 | > 100 µM (inactive) | > 100 µM (inactive) | > 100 µM (inactive) | 50.2 µM (inactive) | – | 50.4 µM (inactive) | 51.4 µM (inactive) | > 100 µM (inactive) | > 100 µM (inactive) | – | > 100 µM (inactive) | > 100 µM (inactive) | 62.1 µM (inactive) | > 100 µM (inactive) | > 100 µM (inactive) | 35.8 µM (inactive) | > 100 µM (inactive) | 81.8 µM (inactive) | > 100 µM (inactive)
10 | Cc1cc(Cc2c(C)c(C)c(Cc3cc(C)cc(C(C)(C)C)c3O)c(C)c2C)c(O)c(C(C)(C)C)c1 | > 100 µM (inactive) | – | > 100 µM (inactive) | > 100 µM (inactive) | > 100 µM (inactive) | > 100 µM (inactive) | 1.21 µM (inactive) | > 100 µM (inactive) | > 100 µM (inactive) | > 100 µM (inactive) | > 100 µM (inactive) | 1.56 µM (inactive) | – | > 100 µM (inactive) | > 100 µM (inactive) | > 100 µM (inactive) | > 100 µM (inactive) | > 100 µM (inactive) | > 100 µM (inactive)
11 | Nc1ncnc2c1ncn2C1OC(CO)CC1O (stereo not drawn) | 38.2 µM (inactive) | 90.8 µM (inactive) | 7.93 µM (inactive) | > 100 µM (inactive) | 21.4 µM (inactive) | 40.4 µM (inactive) | > 100 µM (inactive) | 30.1 µM (inactive) | > 100 µM (inactive) | – | 25.6 µM (inactive) | > 100 µM (inactive) | 19 µM (inactive) | 18 µM (inactive) | 25.5 µM (inactive) | 40.6 µM (inactive) | > 10 µM (inactive) | 29.3 µM (inactive) | > 100 µM (inactive)
